Some results are limits rather than exact numbers.

Broadly, the IC50 is the concentration that inhibits the measured activity by half.

The subject of one assay is thrombin-stimulated platelets. As to the kind of experiment: Fibrinogen-Binding Assay (inhibition of 125I-fibrinogen binding to platelets). Conditions: 125I-labeled fibrinogen 0.176 μmol/liter (60 μg/ml); 22°-25° C., 30 minutes; read-out: Inhibition of 125I-Fibrinogen Binding to Platelet (IC50). The text has this: (§1) The effectiveness of compounds of the present invention as inhibitors of thrombus formation and platelet aggregation may be determined by the following pharmacologic tests which evaluate the inhibition of fibrinogen-mediated platelet aggregation and fibrinogen binding to thrombin-stimulated platelets by said compounds.
(§2) The Platelet Aggregation Assay is based on that described in Blood 66 (4), 946-952 (1985). The Fibrinogen-Binding Assay is essentially that of Ruggeri, Z. M., et al., Proc. Natl. Acad. Sci. USA 83, 5708-5712 (1986) and Plow, E. F., et al., Proc. Natl. Acad. Sci., USA 82, 8057-8061 (1985).
Platelets are washed free of plasma constituents by the albumin density-gradient technique of Walsh, P. N., et al., Br. J. Haematol. 281-296 (1977), as modified by Trapani-Lombardo, V., et al., J. Clin Invest. 76, 1950-1958 (1985). […] The platelet pellet is then separated from the rest of the mixture to determine platelet-bound radioactivity. Nonspecific binding is measured in mixtures containing an excess of unlabeled ligand. When binding curves are analyzed by Scatchard analysis, nonspecific binding is derived as a fitted parameter from the binding isotherm by means of a computerized program (Munson, P. J., Methods Enzymol. 92, 542-576 (1983)). […]
Turning to `N=C(N)NCCCCCCCC(=O)NC(CC(=O)O)NC(=O)CCCCCCCNC(=N)N` (stereo not shown) [Example 1, N,N'-bis-(8-guanidino)octanoyl-3,3-diaminopropionic acid], the IC50 worked out at 70 nM.

Take `N=C(N)NCCCCCCCC(=O)N[C@H](CC(=O)O)NC(=O)[C@@H](N)CCCNC(=N)N` [Example 9, (3S)-N-L-arginyl-N'-(8-guanidino)octanoyl-3,3-diaminopropionic acid]: the IC50 worked out at 1200 nM.

In the next assay the test system is fixed activated platelets. The assay can be described thus: Platelet Aggregation Assay (inhibition of fibrinogen-mediated aggregation of fixed-activated platelets). In kind it is cell-based. The settings on record: human fibrinogen 250 μg/ml, fixed thrombin-activated human platelets.
Source text: as §1, §2
Preparation of Fixed-Activated Platelets
Platelets are isolated from human platelet concentrates using the gel-filtration technique as described by Marguerie, G. A., et al., J. Biol. Chem. 254, 5357-5363 (1979) and Ruggeri, Z. M., et al., J. Clin. Invest. 72, 1-12 (1983). The platelets are suspended at a concentration of 2×10^8 cells/ml in a modified calcium-free Tyrode's buffer containing 127 mM sodium chloride, 2 mM magnesium chloride, 0.42 mM Na2 HPO4, 11.9 mM NaHCO3, 2.9 mM KCl, 5.5 mM glucose, 10 mM HEPES, at a pH of 7.35 and 0.35% human serum albumin (HSA). These washed platelets are activated by addition of human α-thrombin at a final concentration of 2 units/ml, followed by thrombin inhibitor I-2581 at a final concentration of 40 μM. To the activated platelets is added paraformaldehyde to a final concentration of 0.50% and this incubated at room temperature for 30 minutes. The fixed activated platelets are then collected by centrifugation at 650×g for 15 minutes. The platelet pellets are washed four times with the above Tyrode's-0.35% HSA buffer and resuspended to 2×10^8 cells/ml in the same buffer.
Platelet Aggregation Assay
The fixed activated platelets are incubated with a selected dose of the compound to be tested for platelet aggregation inhibition for one minute and aggregation initiated by addition of human fibrinogen to a final concentration of 250 μg/ml. A platelet aggregation profiler Model PAP-4 is used to record the platelet aggregation. The extent of inhibition of aggregation is expressed as the percentage of the rate of aggregation observed in the absence of inhibitor. IC50, i.e., the amount of inhibitor required to reduce the aggregation rate by 50%, is then calculated for each compound (see, for example, Plow, E. F., et al., Proc. Natl. Acad. Sci., USA 82, 8057-8061 (1985)).
For the molecule `N=C(N)NCCCCCCCC(=O)NC(CC(=O)O)NC(=O)CCCCCCCNC(=N)N` (stereo not shown) [Example 1, N,N'-bis-(8-guanidino)octanoyl-3,3-diaminopropionic acid], 120 nM corresponded to half-maximal inhibition (IC50).

As to `N=C(N)NCCCCCCCCC(=O)N[C@H](CC(=O)O)NC(=O)CCCCCCCNC(=N)N` [Example 2, (3S)-N-(8-guanidino)octanoyl-N'-(9-guanidino)nonanoyl-3,3-diaminopropionic acid], half-maximal inhibition (IC50) required 1300 nM.

Take `N=C(N)NCCCCCCC(=O)NC(CC(=O)O)NC(=O)CCCCCCNC(=N)N` (stereo not shown) [Example 4, N,N'-bis-(7-guanidino)heptanoyl-3,3-diaminopropionic acid]: it took 2800 nM to reach half-maximal inhibition (IC50).

As for `N=C(N)NCCCCCCCCC(=O)NC(CC(=O)O)NC(=O)CCCCCCCCNC(=N)N` (stereo not shown) [Example 5, N,N'-bis-(9-guanidino)nonanoyl-3,3-diaminopropionic acid], inhibition was half-maximal at 140 nM (IC50).

Turning to `N=C(N)NCCCCCCCCC(=O)N[C@H](CC(=O)O)NC(=O)CCCCCCNC(=N)N` [Example 6, (3S)-N-(7-guanidino)heptanoyl-N'-(9-guanidino)nonanoyl-3,3-diaminopropionicacid], the IC50 was determined as 2800 nM.

`N=C(N)NCCCCCCCC(=O)N[C@H](CC(=O)O)NC(=O)CCCCCCNC(=N)N` [Example 7, (3S)-N-(7-guanidino)heptanoyl-N'-(8-guanidino)octanoyl-3,3-diaminopropionicacid] returned an IC50 of 740 nM.

For `N=C(N)NCCCCCCCCC(=O)N[C@@H](CC(=O)O)NC(=O)CCCCCCCNC(=N)N` [Example 8, (3R)-N-(8-guanidino)octanoyl-N'-(9-guanidino)nonanoyl-3,3-diaminopropionic acid], the IC50 worked out at 300 nM.

Molecule `N=C(N)NCCCCCCCC(=O)N[C@H](CC(=O)O)NC(=O)[C@@H](N)CCCNC(=N)N` [Example 9, (3S)-N-L-arginyl-N'-(8-guanidino)octanoyl-3,3-diaminopropionic acid] registered a concentration for half-maximal inhibition (IC50) of 9800 nM.

Consider `N=C(N)NCCCCCCCCC(=O)N[C@@H](CC(=O)O)NC(=O)CCCCCCNC(=N)N` [Example 10, (3R)-N-(7-guanidino)heptanoyl-N'-(9-guanidino)nonanoyl-3,3-diaminopropionicacid], for which the IC50 amounted to 120 nM.

Molecule `N=C(N)NCCCCCCCC(=O)N[C@@H](CC(=O)O)NC(=O)CCCCCCNC(=N)N` [Example 11, (3R)-N-(7-guanidino)heptanoyl-N'-(8-guanidino)octanoyl-3,3-diaminopropionicacid] gave an IC50 of 320 nM.

`CC(C)CC(=O)N[C@H](CC(=O)O)NC(=O)CCCCCCCNC(=N)N` [Example 12, (3R)-N-(8-guanidino)octanoyl-N'-(3-methyl)butanoyl-3,3-diaminopropionic acid] displayed an IC50 of 2000 nM.

`CC[C@@H](C)[C@@H](NC(=O)CCCCNC(=N)N)C(=O)N[C@H](CC(=O)O)NC(=O)CCCCCCCCNC(=N)N` [Example 15, (3R)-N-[N-[(5-guanidino)pentanoyl]-D-isoleucyl]-N'-(9-guanidino)nonanoyl-3,3-diaminopropionic acid]: the IC50 amounted to 25000 nM.

`CC[C@H](C)[C@H](NC(=O)CCCCNC(=N)N)C(=O)N[C@H](CC(=O)O)NC(=O)CCCCCCCCNC(=N)N` [Example 17] came in with an IC50 of 17500 nM.

As to `N=C(N)NCCCCCCCC(=O)NC(CCC(=O)O)NC(=O)CCCCCCCNC(=N)N` (stereo not shown) [Example 18, N,N'-bis-(8-guanidino)octanoyl-4,4-diaminobutanoic acid], the IC50 is greater than 100000 nM.

Values taken from US5258398A, “Antithrombotic diaminoalkanoic acid derivatives” (Rhone-Poulenc Rorer Pharmaceuticals Inc., priority 1991, dated 1993).
